Laboratory results from patent publication US10138232B2, “Naphthyridinedione derivatives” (NOVARTIS AG, priority 2014, dated 2018).

Test system: CFTR-Y122X (GFP-CFTR-Y122X-Renilla construct) in Hek293 cell lines
Experiment: CFTR-Y122X assay (dual reporter readthrough, Renilla luminescence)
Format: cell-based
Details: Homo sapiens, compounds incubated 24 h, tested up to 100 μM; for AC50: nonsense mutation suppression in the CFTR-Y122X assay; for Emax: nonsense mutation suppression, 100% activity = 14 mM paromomycin, read-out: Amax
Excerpt: In particular, compounds of formula (I), (I′), (Ia), (Ia′) or (Ib) I act as nonsense mutation suppressors on frequent PTCs, e.g. on Y122X in the mRNA of the cystic fibrosis conductance regulator protein (CFTR). This can be determined in vitro, for example, using cell lines expressing GFP-CFTR-Y122X-Renilla constructs as described herein.
Activity of compounds of the present invention was examined in recombinant, dual reporter isogenic Hek293 cell lines (“CFTR-Y122X assay”). The engineered reporter constructs contained the 18 bp sequence strech corresponding to a common Y122X PTC mutation in CFTR class I mutant patients (see Sermet-Gaudelus, BMC Medicine, 2007, 5(5)). Instead of a tyrosine (Y) in position 122 of the CFTR protein a TGA stop codon interrupts the open reading frame (Y122X) of the corresponding mRNA. This TGA stop codon triplet (followed by the pyrimidine base cytosine) is permissive to aminoglycoside mediated translational readthrough which served as positive control for high throughput screening. A corresponding TAA stop codon variant and a wildtype non mutated construct was used for confirmation and counter screening. The CFTR sequence was sandwiched between an eGFP reporter, and a triple myc tag sequence fused to a full length Renilla reporter. All sequences, including an intron containing one positioned pre-eGFP (b-globin intron) were cloned in frame. The corresponding expression constructs were stably expressed in the isogenic HEK-R4 cell host (Invitrogen Incorp.) and selected by blasticidin resistance. The isogenic integration of the construct minimizes gene dose effects and improves assay reproducibility. Stably integrated single cell derived clones were selected and characterized for aminoglycoside mediated readthrough. […] Readthrough of Y122X accumulates an intracellular localized fusion protein approximately 65.5 kDa in size as controlled by western blot analysis and immunofluorescence using an anti-renilla antibody. The eGFP reporter pre-PTC mutation serves as visual control for genetic stability of the screening clones and minimizes protein degradation of small fusion protein amounts. In the assay, compound concentration was 10 μM. In miniaturized 1536 well format 2000 cells were dispensed in 4 μl/well and incubated for 24 h at 37° C., 5% CO2. 40 nl compounds were placed on the cells with control wells containing 1 ul Paramomycin and 14.4 mM final concentration. Compounds were incubated for 24 h. Renilla Glo substrate (2.5 ul) was added and plates were centrifuged and processed for luminescence measurement using various readers. Activity calculation was done using the equation: A1(%)=100*(S−NC)/(AC−NC) where AC, NC and S correspond to active controls (injection of Stimulation buffer=100% stimulation), neutral controls (buffer injection which Iloprost EC10) and screening samples (S). NC corresponds to 0% activity whereas AC is 100% activity (14 mM paromomycin). False positive artefacts were removed in confirmation and validation screening using the same assay format followed by counterscreening using the respective wildtype construct (w/o PTC mutation) cell model. Compounds were tested up to 100 μM compound concentration.

Compound | AC50 | Emax
Cc1cc2[nH]c3cc(C4CCC4)n(-c4ccccc4)c(=O)c3c(=O)c2s1 [Example 1.37, 6-cyclobutyl-2-methyl-7-phenylthieno[3,2-b][1,6]naphthyridine-8,9(4H,7H)-dione] | 1.4 µM | 164%
CC(C)c1cc2[nH]c3ccccc3c(=O)c2c(=O)n1-n1cccc1 [Example 2.17, 3-isopropyl-2-(1H-pyrrol-1-yl)benzo[b][1,6]naphthyridine-1,10(2H,5H)-dione] | 9 µM | 237%
Cn1c2ccccc2c(=O)c2c(=O)n(-c3ccccn3)c(C3CCC3)cc21 [Example 2.6, 3-cyclobutyl-5-methyl-2-(pyridin-2-yl)benzo[b][1,6]naphthyridine-1,10(2H,5H)-dione] | 3.3 µM | 232%
Cc1cc2[nH]c3cc(C(C)C)n(-c4ccccc4)c(=O)c3c(=O)c2s1 [Example 1.18, 6-isopropyl-2-methyl-7-phenylthieno[3,2-b][1,6]naphthyridine-8,9(4H,7H)-dione] | 3.9 µM | 240%
Cc1csc2c(=O)c3c(=O)n(-c4ccccc4)c(C(C)C)cc3n(C)c12 [Example 1.21, 6-isopropyl-3,4-dimethyl-7-phenylthieno[3,2-b][1,6]naphthyridine-8,9(4H,7H)-dione] | 5.4 µM | 379%
Cc1cc2c(=O)c3c(=O)n(-c4ccccc4)c(C(C)C)cc3[nH]c2s1 [Example 1.14, 7-isopropyl-2-methyl-6-phenylthieno[2,3-b][1,6]naphthyridine-4,5(6H,9H)-dione] |  | 35%
Cc1cc2c(s1)c(=O)c1c(=O)n(-c3ccccc3)c(C(C)C)cc1n2C [Example 1.19, 6-isopropyl-2,4-dimethyl-7-phenylthieno[3,2-b][1,6]naphthyridine-8,9(4H,7H)-dione] | 12.8 µM | 253%
CC(C)c1cc2c(c(=O)c3cccc(O)c3n2C)c(=O)n1-c1ccccc1 [Example 1.52, 6-hydroxy-3-isopropyl-5-methyl-2-phenylbenzo[b][1,6]naphthyridine-1,10(2H,5H)-dione] | 21 µM | 49%
Cc1ccc2[nH]c3cc(C4CCC4)n(-c4ccccc4)c(=O)c3c(=O)c2c1 [Example 1.41, 3-cyclobutyl-8-methyl-2-phenylbenzo[b][1,6]naphthyridine-1,10(2H,5H)-dione] | 0.5 µM | 223%
O=c1c2ccccc2[nH]c2cc(C3CCC3)n(N3CCCC3)c(=O)c12 [Example 2.7, 3-cyclobutyl-2-(pyrrolidin-1-yl)benzo[b][1,6]naphthyridine-1,10(2H,5H)-dione] | 0.7 µM | 197%
CC(C)c1cc2c(c(=O)c3ccccc3n2C)c(=O)n1-n1cccc1 [Example 2.18, 3-isopropyl-5-methyl-2-(1H-pyrrol-1-yl)benzo[b][1,6]naphthyridine-1,10(2H,5H)-dione] | 17.6 µM | 75%
CC(C)c1cc2[nH]c3ccsc3c(=O)c2c(=O)n1-c1ccccc1 [Example 1.16, 6-isopropyl-7-phenylthieno[3,2-b][1,6]naphthyridine-8,9(4H,7H)-dione] | 1.6 µM | 344%
CC(C)c1cc2c(c(=O)c3cc(Cl)ccc3n2C)c(=O)n1-c1ccccc1 [Example 1.8, 8-chloro-3-isopropyl-5-methyl-2-phenylbenzo[b][1,6]naphthyridine-1,10(2H,5H)-dione] | 14.8 µM | 307%
O=c1c2ccccc2[nH]c2cc(C3CCC3)n(-c3ccccn3)c(=O)c12 [Example 2.5, 3-cyclobutyl-2-(pyridin-2-yl)benzo[b][1,6]naphthyridine-1,10(2H,5H)-dione] | 2.7 µM | 217%
O=c1c2cc(F)ccc2[nH]c2cc(C3CCC3)n(-c3ccccc3)c(=O)c12 [Example 1.44, 3-cyclobutyl-8-fluoro-2-phenylbenzo[b][1,6]naphthyridine-1,10(2H,5H)-dione] | 0.4 µM | 178%
Cc1cc2c(=O)c3c(=O)n(-c4ccccc4)c(C4CCC4)cc3n(C)c2s1 [Example 1.31, 7-cyclobutyl-2,9-dimethyl-6-phenylthieno[2,3-b][1,6]naphthyridine-4,5(6H,9H)-dione] | 0.6 µM | 228%
Cn1c2c(c(=O)c3c(=O)n(-c4ccccc4)c(C4CCC4)cc31)CCCC2 [Example 1.28, 3-cyclobutyl-5-methyl-2-phenyl-6,7,8,9-tetrahydrobenzo[b][1,6]naphthyridine-1,10(2H,5H)-dione] | 12.8 µM | 257%
CC(C)c1c(Cl)c2[nH]c3ccccc3c(=O)c2c(=O)n1-c1ccccc1 [Example 3.1, 4-chloro-3-isopropyl-2-phenylbenzo[b][1,6]naphthyridine-1,10(2H,5H)-dione] | 3.2 µM | 211%
COc1cccc2c(=O)c3c(=O)n(-c4ccccc4)c(C(C)C)cc3[nH]c12 [Example 1.47, 3-isopropyl-6-methoxy-2-phenylbenzo[b][1,6]naphthyridine-1,10(2H,5H)-dione] | 5.2 µM | 312%
COc1cccc2c(=O)c3c(=O)n(-c4ccccc4)c(C(C)C)cc3n(C)c12 [Example 1.43, 3-isopropyl-6-methoxy-5-methyl-2-phenylbenzo[b][1,6]naphthyridine-1,10(2H,5H)-dione] | 22 µM | 186%
Cn1c2ccccc2c(=O)c2c(=O)n(N3CCCC3)c(C3CCC3)cc21 [Example 2.8, 3-cyclobutyl-5-methyl-2-(pyrrolidin-1-yl)benzo[b][1,6]naphthyridine-1,10(2H,5H)-dione] | 6.1 µM | 188%
CC(C)c1cc2[nH]c3ccccc3c(=O)c2c(=O)n1-c1ccccn1 [Example 2.9, 3-isopropyl-2-(pyridin-2-yl)benzo[b][1,6]naphthyridine-1,10(2H,5H)-dione] | 4.2 µM | 198%
Cc1csc2c(=O)c3c(=O)n(-c4ccccc4)c(C(C)C)cc3[nH]c12 [Example 1.20, 6-isopropyl-3-methyl-7-phenylthieno[3,2-b][1,6]naphthyridine-8,9(4H,7H)-dione] | 2.5 µM | 183%
CC(C)c1cc2c(c(=O)c3ccccc3n2C)c(=O)n1-c1ccccn1 [Example 2.10, 3-isopropyl-5-methyl-2-(pyridin-2-yl)benzo[b][1,6]naphthyridine-1,10(2H,5H)-dione] | 10 µM | 177%
Cn1c2ccc(Cl)cc2c(=O)c2c(=O)n(-c3ccccc3)c(C3CCC3)cc21 [Example 1.42, 8-chloro-3-cyclobutyl-5-methyl-2-phenylbenzo[b][1,6]naphthyridine-1,10(2H,5H)-dione] | 3.9 µM | 134%
Cc1ccc2c(c1)c(=O)c1c(=O)n(-c3ccccc3)c(C(C)C)cc1n2C [Example 1.10, 3-isopropyl-5,8-dimethyl-2-phenylbenzo[b][1,6]naphthyridine-1,10(2H,5H)-dione] | 7.3 µM | 409%
CC(C)c1cc2c(c(=O)c3sccc3n2C)c(=O)n1-c1ccccc1 [Example 1.17, 6-isopropyl-4-methyl-7-phenylthieno[3,2-b][1,6]naphthyridine-8,9(4H,7H)-dione] | 9.2 µM | 430%
CC(C)c1cc2[nH]c3c(c(=O)c2c(=O)n1-c1ccccc1)CCCC3 [Example 1.22, 3-isopropyl-2-phenyl-6,7,8,9-tetrahydrobenzo[b][1,6]naphthyridine-1,10(2H,5H)-dione] | 7.2 µM | 413%
CC(C)c1cc2c(c(=O)c3ccsc3n2C)c(=O)n1C1CCCC1 [Example 2.16, 6-cyclopentyl-7-isopropyl-9-methylthieno[2,3-b][1,6]naphthyridine-4,5(6H,9H)-dione] | 1.2 µM | 279%
CC(C)c1cc2[nH]c3ccc(F)cc3c(=O)c2c(=O)n1-c1ccccc1 [Example 1.5, 8-fluoro-3-isopropyl-2-phenylbenzo[b][1,6]naphthyridine-1,10(2H,5H)-dione] | 1.8 µM | 358%
